“And” between values parts separate entries of the source, which are not always exact repeats. Equal values may be shown once.
Tested on: SW 1271 complex spheroids, viability
Assay: Anticancer human tumor SW 1271 cell line growth inhibition [LSD1];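 also: spheroids exposed to agents for 7 days before luminescence read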;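 as to viability, T/C: 100% = DMSO vehicle control viability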
Settings: for viability, T/C: stronger effect = lower value
Excerpt: Multicellular complex tumor spheroid response to LSD1 Inhibitor Iadademstat in combination with a variety of drugs and investigational agents in selected tumor cell lines
The current study was undertaken to assess response to LSD1 inhibitors in combination with standard-of-care drugs and investigational agents in solid tumor complex spheroid models as well as in the K-562 leukemia. Complex spheroids include a stromal component modeled by human endothelial cells (HUVEC) and fibroblasts modeled by human mesenchymal stem cells (MSCs). The concentration ranges selected for each drug and investigational agent were based upon clinically achievable concentrations if the clinical Cmax of the agent was known.
Compounds. The drugs and investigational agents used in this study are listed on Table 1. All of the agents used, including staurosporine (NSC755774) and gemcitabine (NSC613327), were obtained from the Developmental Therapeutics Program, NCI. FDA-approved anticancer drugs are available from the NCI at http://dtp.nci.nih.gov/branches/dscb/oncology_drugset_explanation.html. Drugs and investigational agents were >95% pure by proton nuclear magnetic resonance (NMR) and liquid chromatography/mass spectrometry (LC/MS). Stock solutions were prepared at 400x in DMSO, stored at -70 degrees C, and diluted in fresh medium prior to their use. The final concentration of DMSO in cell culture wells never exceeded 0.25% (v/v). The FDA-approved anticancer drug set is available from the Developmental Therapeutics Program at https://dtp.cancer.gov/organization/dscb/obtaining/available_plates.htm. All drugs and investigational agents were tested over a range starting from a high concentration at or near the clinical Cmax and decreasing in half-log increments. If the clinical Cmax for an agent had not been determined, the highest concentration tested was 10 microM.
Cell Lines. The patient-derived cancer cell (PDC) lines: 292921-168-R-J2-PDC, K24384-001-R-PDC, and 521955-158-R2-J5-PDC pancreatic carcinomas, 556581-035-R-J1 ovarian carcinoma, 324938-238-R-J1-PDC, 855422-203-R-J1-PDC and 883617-216-R-J1-PDC urothelial bladder carcinomas, 743489-274-T-PDC renal cell carcinoma, 138582-R-J1 Merkel cell tumor, K60290-347-R-J1 and K57222-313-R-J1-PDC glioblastomas, 653999-131-R-J2-PDC, LG0703-F948-PDC, and 349418-098-R-PDC non-small cell lung carcinomas, 885512-296-R-J2-PDC, 171881-019-R-J1-PDC breast carcinomas and 186277-243-T-J2-PDC and 233499-124-R-J2-PDC colon carcinomas were obtained from the NCI Patient-Derived Models Repository (PDMR, https://pdmr.cancer.gov). The established cell lines NCI/ADR-RES (RRID:CVCL_14520 and OVCAR-5 (RRID:CVCL_1628) ovarian carcinomas, 786-O (RRID:CVCL_1051) and A498 (RRID:CVCL_A498) renal cell carcinoma, NCI-H211 (ATCC, cat. CRL-5824; RRID:CVCL_1529), NCI-H196 (ATCC, cat. CRL-5823, RRID:CVCL_1509), SW 1271 (ATCC, cat. CRL-2177, RRID:CVCL_1716) and NCI-H1876 (ATCC, cat. CRL-5902, RRID:CVCL_1503) small cell lung carcinomas, MDA-MB-231 (RRID:CVCL_0062) and MDA-MB-468 (RRID:CVCL_0419)breast carcinomas (10-12). Pooled donor human umbilical vein endothelial cells (HUVEC, Lonza, cat. CC-2519) and human mesenchymal stem cells (hMSC, Lonza, cat. PT-2501) were purchased from Lonza (Walkersville, MD).
Cell Culture. All cells were maintained in an incubator at 37 degrees C and 5% CO2 with 95% humidity. The PDC lines were cultured according to standard operating procedures established by the NCI PDMR (https://pdmr.cancer.gov). Briefly all PDCs were thawed and cultured in Matrigel-coated flasks prepared with a working solution of 1X Ham's F-12 nutrient mix, without supplementation (Invitrogen, Waltham, MA, cat. 11765054), 100 U/mL penicillin-streptomycin (Invitrogen, cat. 15140122), and 2.5% Matrigel (Corning Inc., Corning, NY, cat. 354248) for the first three passages. […]

[1] = curve of first compound, second compound 0.1 µM
[2] = curve of first compound, second compound 0.316 µM
[3] = curve of first compound, second compound 1 µM
[4] = curve of first compound, second compound 3.16 µM
[5] = curve of first compound, second compound 10 µM
[6] = second compound 0.1 µM, first compound 0.000316 µM
[7] = second compound 0.1 µM, first compound 0.001 µM
[8] = second compound 0.1 µM, first compound 0.00316 µM
[9] = second compound 0.1 µM, first compound 0.01 µM
[10] = second compound 0.1 µM, first compound 0.0316 µM
[11] = second compound 0.1 µM, first compound 0.1 µM
[12] = second compound 0.316 µM, first compound 0.000316 µM
[13] = second compound 0.316 µM, first compound 0.001 µM
[14] = second compound 0.316 µM, first compound 0.00316 µM
[15] = second compound 0.316 µM, first compound 0.01 µM
[16] = second compound 0.316 µM, first compound 0.0316 µM
[17] = second compound 0.316 µM, first compound 0.1 µM
[18] = second compound 1 µM, first compound 0.000316 µM
[19] = second compound 1 µM, first compound 0.001 µM
[20] = second compound 1 µM, first compound 0.00316 µM
[21] = second compound 1 µM, first compound 0.01 µM
[22] = second compound 1 µM, first compound 0.0316 µM
[23] = second compound 1 µM, first compound 0.1 µM
[24] = second compound 3.16 µM, first compound 0.000316 µM
[25] = second compound 3.16 µM, first compound 0.001 µM
[26] = second compound 3.16 µM, first compound 0.00316 µM
[27] = second compound 3.16 µM, first compound 0.01 µM
[28] = second compound 3.16 µM, first compound 0.0316 µM
[29] = second compound 3.16 µM, first compound 0.1 µM
[30] = second compound 10 µM, first compound 0.000316 µM
[31] = second compound 10 µM, first compound 0.001 µM
[32] = second compound 10 µM, first compound 0.00316 µM
[33] = second compound 10 µM, first compound 0.01 µM
[34] = second compound 10 µM, first compound 0.0316 µM
[35] = second compound 10 µM, first compound 0.1 µM

SMILES | IC50 [1] | IC50 [2] | IC50 [3] | IC50 [4] | IC50 [5] | viability, T/C [8] | viability, T/C [9] | viability, T/C [10] | viability, T/C [11] | viability, T/C [14] | viability, T/C [15] | viability, T/C [16] | viability, T/C [17] | viability, T/C [20] | viability, T/C [21] | viability, T/C [22] | viability, T/C [23] | viability, T/C [26] | viability, T/C [27] | viability, T/C [28] | further results
CC[C@@]1(O)C(=O)OCc2c1cc1n(c2=O)Cc2cc3c(CN(C)C)c(O)ccc3nc2-1 + NC1CCC(NC2CC2c2ccccc2)CC1 | > 100 nM | > 100 nM | 66.1 nM | 71.6 nM | > 100 nM | 78.8% | 63% | 58% | 56.4% | 71.6% | 72.5% | 62% | 58.9% | 80.1% | 66.7% | 59% | 45.4% | 72.9% | 68.3% | 49.7% | viability, T/C [6]: 89.2%; viability, T/C [7]: 93.8%; viability, T/C [12]: 90%; viability, T/C [13]: 74.2%; viability, T/C [18]: 73.4%; viability, T/C [19]: 94.5%; viability, T/C [24]: 95.9%; viability, T/C [25]: 78.2%; viability, T/C [29]: 49.6%; viability, T/C [30]: 88.3%; viability, T/C [31]: 84.2%; viability, T/C [32]: 78.2%; viability, T/C [33]: 60.3%; viability, T/C [34]: 57.5%; viability, T/C [35]: 52.2%
CC[C@@]1(O)C(=O)OCc2c1cc1n(c2=O)Cc2cc3c(CN(C)C)c(O)ccc3nc2-1 + NC1CC1c1ccc(-c2cccc(O)c2)cc1 | 52.6 nM | 44.6 nM | 27.8 nM | > 100 nM | 57 nM | 72.5% | 63.6% | 55.9% | 43.5% | 77.4% | 63.6% | 54.7% | 41.6% | 69.1% | 53.4% | 52.4% | 46.5% | 66% | 59.2% | 54.3% | viability, T/C [6]: 93.2%; viability, T/C [7]: 81.3%; viability, T/C [12]: 83%; viability, T/C [13]: 79.4%; viability, T/C [18]: 76.6%; viability, T/C [19]: 79.5%; viability, T/C [24]: 84.9%; viability, T/C [25]: 75.5%; viability, T/C [29]: 50.5%; viability, T/C [30]: 74.7%; viability, T/C [31]: 78.9%; viability, T/C [32]: 62.1%; viability, T/C [33]: 58.2%; viability, T/C [34]: 54.1%; viability, T/C [35]: 47.3%
CC1COCCN1c1cc(-c2ccnn2C)c2ccnc(-c3ccn[nH]3)c2n1 (centres undefined) + NC1CC1c1ccc(-c2cccc(O)c2)cc1 | 48.5 nM | 23.8 nM | 37.2 nM | 36.8 nM | 31.3 nM | 65.2% | 62.7% | 51.6% | 42.9% | 55.5% | 55.6% | 49.7% | 40.6% | 63.7% | 51.1% | 55.4% | 46.6% | 58% | 54.3% | 54.7% | viability, T/C (second compound 0.1 µM, first compound 0.316 µM): 39.4%; viability, T/C (second compound 0.1 µM, first compound 1 µM): 26.6%; viability, T/C (second compound 0.316 µM, first compound 0.316 µM): 39.1%; viability, T/C (second compound 0.316 µM, first compound 1 µM): 31%; viability, T/C (second compound 1 µM, first compound 0.316 µM): 30.6%; viability, T/C (second compound 1 µM, first compound 1 µM): 28.8%; viability, T/C [29]: 38.2%; viability, T/C (second compound 3.16 µM, first compound 0.316 µM): 40.2%; viability, T/C (second compound 3.16 µM, first compound 1 µM): 22.6%; viability, T/C [32]: 67.1%; viability, T/C [33]: 51.5%; viability, T/C [34]: 50.3%; viability, T/C [35]: 41.6%; viability, T/C (second compound 10 µM, first compound 0.316 µM): 40.2%; viability, T/C (second compound 10 µM, first compound 1 µM): 24.9%
O=C(C=Cn1cnc(-c2cc(C(F)(F)F)cc(C(F)(F)F)c2)n1)NNc1cnccn1 |  |  |  |  |  |  |  |  |  |  |  |  |  |  |  |  |  |  |  |  | viability, T/C (compound 0.00316 µM): 92% and 82.7%; viability, T/C (compound 0.01 µM): 87.1% and 89.1%; viability, T/C (compound 0.0316 µM): 80% and 75.1%; viability, T/C (compound 0.1 µM): 45.3% and 51.4%; viability, T/C (compound 0.316 µM): 47.8% and 40.4%; viability, T/C (compound 1 µM): 21.6% and 16.6%; IC50 (curve of compound): 153 nM and 147 nM
Nc1ccn(C2OC(CO)C(O)C2(F)F)c(=O)n1 (centres undefined) |  |  |  |  |  |  |  |  |  |  |  |  |  |  |  |  |  |  |  |  | viability, T/C (compound 0.000949 µM): 73.7% and 82.6%; viability, T/C (compound 0.003 µM): 73.8% and 71.3%; viability, T/C (compound 0.00949 µM): 64.3% and 67.8%; viability, T/C (compound 0.03 µM): 66% and 66.1%; viability, T/C (compound 0.0949 µM): 67.3% and 68.9%; viability, T/C (compound 0.3 µM): 64.6% and 74.8%; IC50 (curve of compound): > 300 nM
CC(C)CC(NC(=O)C(Cc1ccccc1)NC(=O)c1cnccn1)B(O)O (centres undefined) + NC1CCC(NC2CC2c2ccccc2)CC1 | < 0.316 nM | < 0.316 nM | < 0.316 nM | < 0.316 nM | < 0.316 nM | 0.16% | 0.13% | 0.13% | 0.32% | 0.12% | 0.27% | 0.33% | 0.2% | 1.7% | 0.43% | 0.14% | 0.11% | 0.37% | 0.09% | 0.16% | viability, T/C [6]: 2.37%; viability, T/C [7]: 0.35%; viability, T/C [12]: 3.05%; viability, T/C [13]: 0.13%; viability, T/C [18]: 2.83%; viability, T/C [19]: 0.08%; viability, T/C [24]: 2.94%; viability, T/C [25]: 0.33%; viability, T/C [29]: 0.31%; viability, T/C [30]: 2.41%; viability, T/C [31]: 0.43%; viability, T/C [32]: 0.14%; viability, T/C [33]: 0.16%; viability, T/C [34]: 0.12%; viability, T/C [35]: 0.19%

From PubChem BioAssay AID1918941 (Molecular Pharmacology Branch, DTP, NCI, 2023)
